Measured values published in patent US20260049103A1, “PEPTIDE, AND COMPOSITION THEREOF AND USE THEREOF” (WINKEY TECHNOLOGY USA INC, priority 2023, published 2026).
Non-standard residues stand in square brackets, D forms with d. *: point of attachment. Palmitoyl = CCCCCCCCCCCCCCCC(=O)*; Nle = CCCC[C@H](N)C(=O)O

Legend:
hyaluronic acid = assay: Determination of hyaluronic acid content in HaCaT cells; type: cell-based, Human; conditions: 12.5 ppm, 48 h, compared with blank control, FIG. 9
Method: (§1) Human keratinocytes (HaCaT) were purchased from the Kunming Cell Bank of China Center for Type Culture Collection under the Chinese Academy of Sciences.
Polypeptide group: Peptide (4), peptide (13) and peptide (20). The test concentrations of all the above samples were 12.5 ppm.
(§2) Blank control group: PBS.
A bottle of HaCaT cells in good exponential growth phase was taken. A 0.25% trypsin digestion solution was added so that digestion allowed the adherent cells to fall off, counting 1 to 4×10^6 cells/mL, which were prepared into a cell suspension.
The cells were inoculated into a 6-well plate at 10^5 cells/well, and grouped when the cells reached approximately 80% confluence. […]
After completion of the culture, cells were scraped off using a cell scraper, and 200 μL of RIPA lysis buffer was added to extract proteins. […] The total protein concentration was quantified to 1 mg/mL using the BCA method. […] The OD value of each well was measured in sequence at 570 nm using a microplate reader within 15 min.
Hyaluronic acid is one of the main matrix ingredients of the human skin epidermis and an important component of the skin barrier. […] This experiment measured the effect of the peptide of the present invention on the hyaluronic acid content to determine whether the peptide of the invention can increase the hyaluronic acid content and thus play a role in moisturizing and anti-aging repair.

hyaluronidase = assay: Hyaluronidase inhibition experiment; type: biochemical; conditions: FIG. 11; for hyaluronidase inhibition rate: at 100 ppm; for inhibition of hyaluronidase activity: at the tested concentrations (50 ppm and 100 ppm)
From the text: Spectrophotometer, phosphate buffered saline (PBS), hyaluronic acid, and hyaluronidase.
Peptide (13) and peptide (14). The test concentrations of all the above samples were 50 ppm and 100 ppm.
The experiment was divided into four groups: blank control group A1 (PBS+hyaluronidase), enzyme-free blank control group A2 (PBS+solvent without hyaluronidase), sample group B1 (samples to be tested+hyaluronidase), and enzyme-free sample group B2 (samples to be tested+solvent without hyaluronidase). The total reaction volume of each group was the same.
According to the grouping, 100 μL of CaCl2) (2.5 mmol/L) was mixed with 500 μL of hyaluronidase (500 U/mL) or solvent without hyaluronidase, and 20 μL of the mixture was taken and shaken in a 37° C. constant temperature gas bath oscillator for 20 min. The blank control group was added with 20 μL of PBS and shaken in a 37° C. constant temperature gas bath oscillator for 20 min. The sample groups were added with 20 μL of samples at different concentrations and shaken in a 37° C. constant temperature gas bath oscillator for 20 min. The above groups were added with 40 μL of hyaluronic acid and shaken in a 37° C. constant temperature gas bath oscillator for 40 min. 10 μL of acetylacetone solution was added and shaken in a 50° C. constant temperature gas bath oscillator for 10 min, then placed in an oven at 75° C. for 40 min and at 50° C. for 10 min. After the reaction was completed and cooled, the plastic wrap was quickly removed to avoid the generation of water vapor. Then 100 μL of 96% anhydrous ethanol and 10 μL of Ehrlich reagent were added, and the absorbances were measured at 492 nm.
Hyaluronidase can decompose hyaluronic acid in the body, converting it into low-molecular-weight acidic irritant, thereby causing the release of histamine and inducing sensitive symptoms in the body. In addition, the reduction of hyaluronic acid will destroy the skin barrier function, leading to the loss of moisture inside the skin. Therefore, inhibiting the activity of hyaluronidase can achieve the effects of soothing, moisturizing and repairing the skin barrier.

[1] = tested on: Human keratinocytes (HaCaT); assay: Cell proliferation assay (MTT) in HaCaT cells; type: cell-based; conditions: FIG. 6; for cell activity / proliferation of HaCaT keratinocytes: 72 h, at low concentrations (tested 6.25, 12.5, 25 ppm)
From the text: Thiazolyl blue (MTT), dimethyl sulfoxide (DMSO), DMEM culture medium, fetal bovine serum, and PBS.
as §1
Polypeptide group: Peptide (4), peptide (9), peptide (13) and peptide (20). The test concentrations of all the above samples were 6.25 ppm, 12.5 ppm and 25 ppm.
as §2
Positive control group: 2% DMSO.
Cells in good exponential growth phase were taken. A 0.25% trypsin digestion solution was added so that digestion allowed the adherent cells to fall off, counting 1 to 4×10^5 cells/mL, which were prepared into a cell suspension.
The cell suspension was inoculated into a 96-well plate with 200 μL/well, and cultured in a constant-temperature CO2 incubator for 24 h.
After changing the medium, samples of the polypeptide groups, the blank control group and the positive control group were added at 20 μL/well respectively, and incubated in a 5% CO2 incubator at 37° C. for 72 h.
20 μL of 5 mg/mL MTT was added to each well and the incubation was continued in the 5% CO2 incubator at 37° C. for 4 h. The original solution was removed and 150 μL/well of DMSO was added. After shaking the plate on a plate shaker for 5 min, a microplate reader was used to determine the OD value of each well at a wavelength of 570 nm, and the cell viability was calculated.
Cell viability=[OD (test sample well)−OD (zero adjustment well)]/[OD (blank control well)−OD (zero adjustment well)]×100%
The MTT assay is a method of detecting cell survival and growth. The measured OD values are directly proportional to cell viability. The higher the cell viability, the larger the OD value.

filaggrin (FLG) = assay: Filaggrin expression experiment (UV-irradiated HaCaT cells); type: cell-based, Human; conditions: 80 mJ/cm^2 UV, 24 h, 10-50 ppm, compared with UV group, fluorescence staining, FIG. 10
Method: as §1
Polypeptide group: Peptide (4), peptide (9), peptide (13) and peptide (20). The test concentrations of all the above samples were 10 ppm and 50 ppm.
as §2
UV group: UV radiation with PBS.
The frozen HaCaT cells were cultured and passaged at a ratio of 1:2 to about the 5th generation, and the cells in better growth were selected as experiment subjects. The cell suspension was taken and inoculated into a 96-well plate at 10^4 cells/well, complete culture medium was added, and the mixture was cultured in a 5% CO2 incubator at 37° C. for 24 h. A UV photoaging model was established when the cells reached approximately 80% confluence. […]
After incubation, the cells were digested, grown on a cell climbing slice for 12 hours and then fixed. The cells were stained using a filaggrin (FLG) detection kit and observed under a fluorescence microscope after staining.
Filaggrin (FLG) is an important molecule that links keratin fibers in the stratum corneum of human skin. […] In this experiment, 80 mJ/cm^2 UV energy was selected for radiation to establish a skin stratum corneum cell model, and the effect of the sample on FLG expression was detected to analyze whether the peptides of the present invention can promote FLG expression.

| Compound | hyaluronic acid content (hyaluronic acid) | hyaluronidase inhibition rate (hyaluronidase) [%] | inhibition of hyaluronidase activity (hyaluronidase) | cell activity / proliferation of HaCaT keratinocytes [1] | further results |
| --- | --- | --- | --- | --- | --- |
| Palmitoyl-G[Nle]KLY-NH2 [peptide (4)] | more superior technical effects | – | – | – | – |
| Palm-Lys-Val-Lys-Leu-Tyr-OH (Palmitoyl-KVKLY-OH; SMILES CCCCCCCCCCCCCCCC(=O)N[C@@H](CCCCN)C(=O)N[C@H](C(=O)N[C@@H](CCCCN)C(=O)N[C@@H](CC(C)C)C(=O)N[C@@H](Cc1ccc(O)cc1)C(=O)O)C(C)C) [peptide (14)] | – | 40.96 | inhibited the activity of hyaluronidase | – | – |
| C[S+](C)[O-] [2% DMSO, dimethyl sulfoxide, reference compound] | – | – | – | – | toxic effect on HaCaT cells (cell viability) ([1]; 72 h incubation, peptides at 6.25, 12.5 and 25 ppm, compared with blank control (PBS)): had a toxic effect on HaCaT cells |
| Palm-Lys-Val-Lys-Leu-Tyr-NH2 (Palmitoyl-KVKLY-NH2; SMILES CCCCCCCCCCCCCCCC(=O)N[C@@H](CCCCN)C(=O)N[C@H](C(=O)N[C@@H](CCCCN)C(=O)N[C@@H](CC(C)C)C(=O)N[C@@H](Cc1ccc(O)cc1)C(N)=O)C(C)C) [peptide (13)] | – | 49.40 | inhibited the activity of hyaluronidase | – | FLG content / FLG expression (filaggrin (FLG)): optimum technical effect |
| Palmitoyl-G[Nle]RLY-NH2 [peptide (20)] | more superior technical effects | – | – | significantly improve cell activity | – |
| Palm-Val-Lys-Leu-Tyr-Gly-Ser-NH2 (Palmitoyl-VKLYGS-NH2; SMILES CCCCCCCCCCCCCCCC(=O)N[C@H](C(=O)N[C@@H](CCCCN)C(=O)N[C@@H](CC(C)C)C(=O)N[C@@H](Cc1ccc(O)cc1)C(=O)NCC(=O)N[C@@H](CO)C(N)=O)C(C)C) [peptide (9)] | – | – | – | significantly improve cell activity | – |
